Series [1] deals with maximal electroshock (MES) induced seizure. Description: maximal electroshock (MES) seizure test, mice (ip). Format: in vivo. Particulars: for ED50: Mus musculus, read-out: MES, ED50. An excerpt: (§1) Compounds were screened for anticonvulsant activity in both male albino Carthworth Farms No. 1 mice (ip route) and male albino Sprague Dawley rats [oral (po) route]. Activity was established using the electrical (maximal electroshock or MES) test. In the MES test, a drop of electrolyte solution with anesthetic (0.5% butacaine hemisulfate in 0.9% sodium chloride) was used in the eyes of the animals prior to positioning the corneal electrodes and delivery of current. […] Protection endpoints were defined as the abolition of the hind limb tonic extensor component of the induced seizure. In mice, effects of compounds on forced spontaneous motor activity were determined using the rotorod test. […] Normally under these conditions, mice maintain their balance almost indefinitely. In rats, motor impairment is assessed by observing for overt evidence of ataxia, abnormal gait and stance, and/or loss of placing response and muscle tone. In the mouse identification screening study all compounds were given at three dose levels (30, 100, 300 mg/kg) and two time periods (0.5 hours, 4 hours). Typically, in the MES seizures test one animal was tested at 30 mg/kg and 300 mg/kg, and three animals at 100 mg/kg. In the rotored toxicity test four animals were tested at 30 mg/kg, and 300 mg/kg, and eight animals at 100 mg/kg.
(§2) The quantitative determination of the median effective (ED50) and toxic doses (TD50) was conducted at previously calculated times of peak effect. Groups of at least eight animals were tested using different doses of test compound until at least two points wee determined between 100 and 0% protection and minimal motor impairment.
A general note: The maximal electroshock test induces tonic seizures with an electrical stimulus.

Series [2] can be described thus: rotorod neurologic toxicity test, mice (ip). In kind it is in vivo. The settings on record: male, Carthworth Farms No. 1, mouse, in vivo; mice, ip, rotorod test, at time of peak effect; read-out: tox, TD50.
Description: as §1
(§3) The quantitative determination of the median effective (ED50) and toxic doses (TD50) was conducted at previously calculated times of peak effect. Groups of at least eight animals were tested using different doses of test compound until at least two points wee determined between 100 and 0% protection and minimal motor impairment. The dose of candidate substance required to produce the defined end-point in 50% of the animals in each test and the 95% confidence interval was calculated.

For series [3], the system named is maximal electroshock (MES) induced seizure. Description: maximal electroshock (MES) seizure test, rats (po). Particulars: rat. In kind it is in vivo.
Description: as §1, §2

In series [4] the test system is motor impairment (rotorod test). Briefly: rotorod neurologic toxicity test, mice (ip). Format: in vivo. The settings on record: for tox, TD50: mice, ip, rotorod test, at time of peak effect.
Description: as §1, §3
Background: Falling from the rotarod earlier than controls is read as motor impairment.

Series [5] in a line: motor impairment (ataxia, gait, stance) observation, rats (po). In kind it is in vivo. The settings on record: male, Sprague Dawley, in vivo; rat, po, at time of peak effect; read-out: tox, TD50.
Description: Compounds were screened for anticonvulsant activity in both male albino Carthworth Farms No. 1 mice (ip route) and male albino Sprague Dawley rats [oral (po) route]. Activity was established using the electrical (maximal electroshock or MES) test. In the MES test, a drop of electrolyte solution with anesthetic (0.5% butacaine hemisulfate in 0.9% sodium chloride) was used in the eyes of the animals prior to positioning the corneal electrodes and delivery of current. A 60 cycle alternating current was administered for 0.2 sec. in both species, 50 mA in mice and 150 mA in rats. Protection endpoints were defined as the abolition of the hind limb tonic extensor component of the induced seizure. In mice, effects of compounds on forced spontaneous motor activity were determined using the rotorod test. […] Normally under these conditions, mice maintain their balance almost indefinitely. In rats, motor impairment is assessed by observing for overt evidence of ataxia, abnormal gait and stance, and/or loss of placing response and muscle tone. In the mouse identification screening study all compounds were given at three dose levels (30, 100, 300 mg/kg) and two time periods (0.5 hours, 4 hours). Typically, in the MES seizures test one animal was tested at 30 mg/kg and 300 mg/kg, and three animals at 100 mg/kg. In the rotored toxicity test four animals were tested at 30 mg/kg, and 300 mg/kg, and eight animals at 100 mg/kg.
as §3

The subject of series [6] is liver. Briefly: liver toxicity evaluation of D-furyl derivative, oral gavage to rats. Format: in vivo. As to the method:
Compound C, i.e., D-(−)-α-acetamido-N-benzyl-2-furanacetylamide was evaluated for liver toxicity using the procedures described hereinabove. More specifically, various dosages such as 25 mg/kg, 100 mg/kg, 500 mg/kg of the drug was administered by oral gavage to rats for a set period of time. The rats were housed separately. The rats were periodically viewed for mortality and moribundity. At the termination of the study, the surviving rats were anesthetized, and exsanguinated under anesthesia.

The structures appear in SMILES notation.

As usually defined, the ED50 is the dose that gives a 50% effect, or the effect in half of the subjects. The term melting point denotes the temperature, or range, at which the solid turns liquid. What is called TD50 is the dose at which the toxic effect under study appears in half of the subjects. `CC(=O)NC(CO)C(=O)NCc1ccccc1` (centres unmarked) [compound 8, N-Benzyl 2-Acetamidohydracrylamide] had a melting point of 201 to 203 °C. For the same compound, the 50% effective dose (ED50) in series [1] (ip) was in the range of 100 to 300 mg/kg. Moreover, the TD50 in series [2] was more than 300 mg/kg.
As for `COC[C@@H](NC(C)=O)C(=O)NCc1ccc(F)cc1` [Ex. 4, (R)-N-(4-Fluorobenzyl)2-Acetamido-3-Methoxypropanamide], the melting point lay in the range of 144 to 145 °C. Moreover, the ED50 in series [1] (ip) was found to be 4.2 mg/kg. Besides, the “PI protective index (TD50/MES ED50)” value in series [1] (mice, ip) worked out at 6.6. Besides, the ED50 in series [3] (po, at time of peak effect, read-out: MES, ED50) is 2.6 mg/kg. In series [4], the “tox, TD50” value was 27.8 [0.25] mg/kg. The TD50 in series [5] was 125 to 250 mg/kg.
Regarding `CC(=O)N[C@@H](C(=O)NCc1ccccc1)c1ccco1` [compound 6, (D)-(−)α-Acetamido-N-benzyl-2-furanacetamide], the “Safety Ratio daily dose; MES” value in series [6] (rat, oral, 25 mg/kg/day × 30 days vs oral MES ED50) came to 12.7. In series [6] (rats), the “safety ratio for histologic signs of liver toxicity (hepatocellular necrosis)” value is 12.7. Also, the hepatocellular necrosis entry in series [6] (rats, 100 and 25 mg/kg, treated for 13 weeks) is “hepatocellular necrosis was evident”. For the same compound, the “PI protective index (TD50/MES ED50)” value in series [1] (mice, ip) was “>.2”. For the same compound, the “MES, ED50” value in series [1] (mice, ip, at time of peak effect (hours in brackets)) turned out to be 3.3 mg/kg. The “MOUSE anticonvulsant dose ED50 MES” value in series [1] (mouse, i.p. (Table 6)) came out at 3.3 mg/kg. Further, the “Ratio to MES” value in series [1] (mouse, i.p., Neurotox/MES (Table 6)) was found to be 7.2; in series [3] (oral, Neurotox/MES (Table 6)), 175. For the same compound, the “RAT anticonvulsant ED50 MES” value in series [3] (oral (Table 6)) is listed as 1.97 mg/kg. In series [4], the “tox, TD50” value is on record as 23.8 mg/kg. The “MOUSE ED50 Neurotox” value in series [4] (mouse, i.p., rotorod test at peak effect (Table 6)) was 23.8 mg/kg.

These data come from patent USRE38551E1, “Anticonvulsant enantiomeric amino acid derivatives” (priority 1996, dated 2004).
